Measurements published in patent US20100298286A1, “Organic Compounds” (NOVARTIS AG, priority 2007, published 2010).

What was measured:
Assay type in all cases: biochemical
PI3Kgamma = biological target: T1, PI3Kgamma (Homo sapiens, UniProt P48736, Q459R); assay: PI3K KinaseGlo assay, PI3Kgamma; conditions: 1 μM ATP, 150 nM enzyme, 90 mins
T1 construct: Constructs lacking the N-terminal 144 aa; His6 (C); made in house; host or cells: Tn5 insect cells; construct from Roger Williams lab (MRC LMB)
Method: PI3K KinaseGlo assay: […] of compound dilutions were dispensed onto black 384-well low volume Non Binding Styrene (NBS) plates (Costar Cat. No. NBS#3676). L-a-phosphatidylinositol (PI), provided as 10 mg/ml solution in methanol, was transferred into a glass tube and dried under nitrogen beam. It was then resuspended in 3% OctylGlucoside (OG) by vortexing and stored at 4° C. The KinaseGlo Luminescent Kinase Assay (Promega, Madison/WI, USA) is a homogeneous HTS method of measuring kinase activity by quantifying the amount of ATP remaining in solution following a kinase reaction.
5 μL of a mix of PI/OG with the PI3K subtype were added (Table 1). Kinase reactions were started by addition of 5 μl of ATP-mix containing in a final volume 10 μL 10 mM TRIS-HCl pH 7.5, 3 mM MgCl2, 50 mM NaCl, 0.05% CHAPS, 1 mM DTT and 1 μM ATP, and occurred at room temperature. Reactions were stopped with 10 μl of KinaseGlo and plates were read 10 mins later in a Synergy2 reader using an integration time of 0.1 seconds per well. […] The standard was used as a reference compound and included in all assay plates in the form of 16 dilution points in duplicate.
The PI3Kα, PI3Kβ and PI3Kδ constructs are fusion of p85α iSH2 domain and the respective p110 isoforms. The p85α fragment and p110 isoform genes were generated by PCR from first strand cDNA generated by RT-PCR from commercial RNA from placenta, testis and brain as described below. […]
The lysate was centrifuged at 45,000 g for 30 minutes, and the supernatant was loaded onto a pre-equilibrated IMAC column (3 mL resin/100 mL lysate). […] Pertinent fractions were analyzed by SDS-PAGE and pooled accordingly. […] Pertinent fractions were analyzed by SDS-PAGE and pooled accordingly. […]

PI3Kalpha = biological target: T2, PI3Kalpha (Homo sapiens, UniProt P42336); assay: PI3K KinaseGlo assay, PI3Kalpha; conditions: 1 μM ATP, 10 nM enzyme, 30 mins
T2 construct: His6 (C); made in house; host or cells: baculovirus / Tn5 insect cells
T2 sequence (P42336 with tags, fused parts or gaps): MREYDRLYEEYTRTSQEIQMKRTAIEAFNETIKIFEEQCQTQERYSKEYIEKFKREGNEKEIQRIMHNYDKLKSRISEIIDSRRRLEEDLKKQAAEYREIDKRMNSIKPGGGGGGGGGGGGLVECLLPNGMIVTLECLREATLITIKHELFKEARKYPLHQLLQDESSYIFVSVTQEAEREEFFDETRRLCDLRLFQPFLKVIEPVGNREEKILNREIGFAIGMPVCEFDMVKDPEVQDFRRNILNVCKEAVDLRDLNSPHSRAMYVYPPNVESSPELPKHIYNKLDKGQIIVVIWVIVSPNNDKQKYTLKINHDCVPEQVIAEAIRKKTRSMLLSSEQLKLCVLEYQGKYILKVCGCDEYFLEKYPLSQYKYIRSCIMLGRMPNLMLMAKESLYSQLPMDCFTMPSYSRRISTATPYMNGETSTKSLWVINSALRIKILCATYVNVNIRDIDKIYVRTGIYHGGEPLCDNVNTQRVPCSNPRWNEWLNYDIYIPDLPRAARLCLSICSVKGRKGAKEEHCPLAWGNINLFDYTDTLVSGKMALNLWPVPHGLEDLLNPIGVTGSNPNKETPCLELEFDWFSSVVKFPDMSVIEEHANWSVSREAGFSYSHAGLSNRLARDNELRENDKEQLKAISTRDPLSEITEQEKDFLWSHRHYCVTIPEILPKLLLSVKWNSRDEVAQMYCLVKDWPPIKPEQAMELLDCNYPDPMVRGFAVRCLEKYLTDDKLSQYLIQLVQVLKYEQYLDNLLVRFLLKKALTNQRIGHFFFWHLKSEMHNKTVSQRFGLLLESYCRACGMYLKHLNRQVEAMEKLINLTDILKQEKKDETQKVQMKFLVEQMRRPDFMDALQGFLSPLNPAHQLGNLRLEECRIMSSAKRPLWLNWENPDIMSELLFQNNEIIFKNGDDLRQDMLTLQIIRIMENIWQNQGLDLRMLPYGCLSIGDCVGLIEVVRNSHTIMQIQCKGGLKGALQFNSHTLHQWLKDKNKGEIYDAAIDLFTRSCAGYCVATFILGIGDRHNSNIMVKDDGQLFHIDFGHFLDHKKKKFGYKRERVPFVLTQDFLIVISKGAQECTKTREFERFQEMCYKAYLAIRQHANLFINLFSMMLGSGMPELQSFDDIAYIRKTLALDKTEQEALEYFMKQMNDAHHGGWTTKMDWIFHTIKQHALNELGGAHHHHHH

PI3Kdelta = biological target: T3, PI3Kdelta (Homo sapiens, UniProt O00329); assay: PI3K KinaseGlo assay, PI3Kdelta; conditions: 1 μM ATP, 10 nM enzyme, 30 mins
T3 construct: for the full-length p110δ subunit were generated and fused by overlapping PCR; His tag (C); made in house; host or cells: baculovirus / Tn5 insect cells
T3 sequence (O00329 with tags, fused parts or gaps): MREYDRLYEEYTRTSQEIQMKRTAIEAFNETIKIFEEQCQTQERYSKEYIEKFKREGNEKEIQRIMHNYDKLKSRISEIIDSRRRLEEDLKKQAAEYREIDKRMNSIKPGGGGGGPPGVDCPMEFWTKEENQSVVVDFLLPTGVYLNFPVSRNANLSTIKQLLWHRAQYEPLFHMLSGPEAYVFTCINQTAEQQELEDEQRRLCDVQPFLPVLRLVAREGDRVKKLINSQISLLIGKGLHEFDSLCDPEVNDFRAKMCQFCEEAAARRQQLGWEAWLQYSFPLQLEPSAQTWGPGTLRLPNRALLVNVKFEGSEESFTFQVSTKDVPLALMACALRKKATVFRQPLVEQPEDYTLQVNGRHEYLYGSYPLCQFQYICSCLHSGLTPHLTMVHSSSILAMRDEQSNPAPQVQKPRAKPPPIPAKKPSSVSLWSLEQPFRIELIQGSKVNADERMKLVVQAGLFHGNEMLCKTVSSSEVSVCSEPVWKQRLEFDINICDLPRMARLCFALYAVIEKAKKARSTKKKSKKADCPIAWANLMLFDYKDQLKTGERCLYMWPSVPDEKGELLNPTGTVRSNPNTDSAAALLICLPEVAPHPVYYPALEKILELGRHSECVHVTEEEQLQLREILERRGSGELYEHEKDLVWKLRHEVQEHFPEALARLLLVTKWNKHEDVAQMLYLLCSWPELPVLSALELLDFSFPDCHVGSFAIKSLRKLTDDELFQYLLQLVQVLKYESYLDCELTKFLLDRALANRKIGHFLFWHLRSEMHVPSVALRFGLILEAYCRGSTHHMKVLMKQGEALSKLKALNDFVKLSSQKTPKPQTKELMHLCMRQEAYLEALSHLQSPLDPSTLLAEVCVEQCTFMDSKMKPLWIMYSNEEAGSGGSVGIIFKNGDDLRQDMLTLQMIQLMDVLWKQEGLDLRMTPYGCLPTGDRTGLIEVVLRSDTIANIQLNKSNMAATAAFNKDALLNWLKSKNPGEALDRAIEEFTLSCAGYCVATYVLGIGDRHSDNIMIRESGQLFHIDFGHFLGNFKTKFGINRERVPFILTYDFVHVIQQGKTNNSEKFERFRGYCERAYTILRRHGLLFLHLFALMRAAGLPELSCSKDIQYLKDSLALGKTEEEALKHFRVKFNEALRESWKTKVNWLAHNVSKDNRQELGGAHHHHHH

PI3Kbeta = biological target: T4, PI3Kbeta (Homo sapiens, UniProt P42338); assay: PI3K KinaseGlo assay, PI3Kbeta; conditions: 1 μM ATP, 25 nM enzyme, 30 mins
T4 construct: p85α iSH2 domain (fusion partner); His tag (C); made in house; host or cells: baculovirus / Tn5 insect cells
T4 sequence (P42338 with tags, fused parts or gaps limits assumed): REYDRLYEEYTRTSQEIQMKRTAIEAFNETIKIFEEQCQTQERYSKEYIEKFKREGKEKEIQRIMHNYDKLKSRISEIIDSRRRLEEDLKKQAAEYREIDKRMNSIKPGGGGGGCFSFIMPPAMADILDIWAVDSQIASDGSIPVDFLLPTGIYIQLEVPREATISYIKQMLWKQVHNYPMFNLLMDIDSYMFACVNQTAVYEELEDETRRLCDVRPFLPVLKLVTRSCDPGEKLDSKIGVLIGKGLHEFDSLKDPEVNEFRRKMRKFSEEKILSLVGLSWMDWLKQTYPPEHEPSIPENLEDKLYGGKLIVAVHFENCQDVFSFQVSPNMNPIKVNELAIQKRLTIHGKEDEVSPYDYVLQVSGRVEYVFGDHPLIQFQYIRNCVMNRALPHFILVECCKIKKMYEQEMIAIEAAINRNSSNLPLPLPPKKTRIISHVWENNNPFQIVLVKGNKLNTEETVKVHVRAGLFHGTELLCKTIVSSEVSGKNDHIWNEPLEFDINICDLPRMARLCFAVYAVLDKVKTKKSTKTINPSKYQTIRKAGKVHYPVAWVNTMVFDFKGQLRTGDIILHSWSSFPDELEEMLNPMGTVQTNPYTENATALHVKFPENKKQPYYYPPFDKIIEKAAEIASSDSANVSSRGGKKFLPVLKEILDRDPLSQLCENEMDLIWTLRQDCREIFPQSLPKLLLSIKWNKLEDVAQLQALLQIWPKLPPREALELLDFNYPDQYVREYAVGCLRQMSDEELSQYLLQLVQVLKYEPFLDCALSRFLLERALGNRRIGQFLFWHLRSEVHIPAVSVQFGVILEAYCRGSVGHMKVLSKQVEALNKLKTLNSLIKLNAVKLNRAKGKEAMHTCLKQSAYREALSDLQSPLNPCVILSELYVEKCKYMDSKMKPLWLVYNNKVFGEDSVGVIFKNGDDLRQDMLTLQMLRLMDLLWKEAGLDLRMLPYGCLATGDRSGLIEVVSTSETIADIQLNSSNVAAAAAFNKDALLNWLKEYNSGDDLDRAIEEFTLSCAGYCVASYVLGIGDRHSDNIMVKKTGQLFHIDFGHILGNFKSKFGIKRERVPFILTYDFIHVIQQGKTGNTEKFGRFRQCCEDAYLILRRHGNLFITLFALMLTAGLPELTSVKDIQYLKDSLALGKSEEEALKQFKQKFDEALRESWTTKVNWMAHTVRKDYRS

T1 sequence (P48736 with tags, fused parts or gaps Q459R): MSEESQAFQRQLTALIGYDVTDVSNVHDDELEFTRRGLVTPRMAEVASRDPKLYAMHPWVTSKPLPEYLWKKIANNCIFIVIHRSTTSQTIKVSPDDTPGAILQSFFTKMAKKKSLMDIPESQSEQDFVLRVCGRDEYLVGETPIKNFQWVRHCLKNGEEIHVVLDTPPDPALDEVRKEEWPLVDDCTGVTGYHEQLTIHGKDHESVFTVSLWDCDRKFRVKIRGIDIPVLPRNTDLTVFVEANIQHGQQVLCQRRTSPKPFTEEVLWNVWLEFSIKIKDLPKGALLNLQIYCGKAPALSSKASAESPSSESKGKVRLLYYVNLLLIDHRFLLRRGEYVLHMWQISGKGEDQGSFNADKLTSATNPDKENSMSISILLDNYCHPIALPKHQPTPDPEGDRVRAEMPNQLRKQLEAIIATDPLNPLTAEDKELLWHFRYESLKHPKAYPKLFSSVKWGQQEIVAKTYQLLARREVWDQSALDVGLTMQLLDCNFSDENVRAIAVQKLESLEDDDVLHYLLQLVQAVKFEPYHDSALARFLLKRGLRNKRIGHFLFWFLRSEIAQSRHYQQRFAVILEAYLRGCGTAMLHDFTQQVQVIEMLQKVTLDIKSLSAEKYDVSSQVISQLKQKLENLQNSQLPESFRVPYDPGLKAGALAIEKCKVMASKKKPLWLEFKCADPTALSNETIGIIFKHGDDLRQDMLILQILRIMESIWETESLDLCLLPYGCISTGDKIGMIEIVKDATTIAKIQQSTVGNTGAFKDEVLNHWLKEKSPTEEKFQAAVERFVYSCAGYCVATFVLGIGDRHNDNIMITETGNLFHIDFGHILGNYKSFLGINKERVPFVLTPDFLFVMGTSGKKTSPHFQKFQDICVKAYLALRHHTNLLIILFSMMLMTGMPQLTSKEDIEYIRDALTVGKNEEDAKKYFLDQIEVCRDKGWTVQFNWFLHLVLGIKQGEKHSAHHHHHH

Compound | IC50 (PI3Kgamma) [nM] | IC50 (PI3Kalpha) [nM] | IC50 (PI3Kdelta) [nM] | IC50 (PI3Kbeta) [nM]
Cc1nc(NC(=O)N2CCC[C@H]2C(N)=O)sc1-c1csc(N2CC3CCC(CC3)C2)n1 [Example 23, (S)-Pyrrolidine-1,2-dicarboxylic acid 2-amide 1-{[2-(3-aza-bicyclo[3.2.2]non-3-yl)-4′-methyl-[4,5]bithiazolyl-2′-yl]-amide}] | 1640 | 331 | 2370 | 8470
Cc1nc(NC(=O)N2CCC2C(N)=O)sc1-c1csc(C(C)(C)C)n1 (stereo not drawn) [Example 13, Azetidine-1,2-dicarboxylic acid 2-amide 1-[(2-tert-butyl-4′-methyl-[4,5]bithiazolyl-2′-yl)-amide]] | 2510 | 54 | 622 | 6860
Cc1nc(NC(=O)N2CCC[C@@]2(C)C(N)=O)sc1-c1csc(CC2CC2)n1 [Example 49, (S)-2-Methyl-pyrrolidine-1,2-dicarboxylic acid 2-amide 1-[(2-cyclopropylmethyl-4′-methyl-[4,5]bithiazolyl-2′-yl)-amide]] | 928 | 78 | 1260 | 885
